Test results published in patent publication US7192906B2, “Substituted pyrazole derivatives, production process thereof, and herbicide compositions containing the derivatives” (SDS Biotech K.K., priority 2001, dated 2007).

Key:
Assay type in all cases: in vivo
Stellaria media [1] = assay: Test Example 1 upland field foliage treatment; details: Table 4, upland field foliage treatment, index 0-5
How it was run: (§1)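 Post-emergence foliar spray, 1 kg a.i./ha, wettable powder diluted in water, applied 14 d after sowing in upland soil. Rating 21 d post-application, 0–5 scale: 5 ≥90%, 4 70–<90%, 3 50–<70%, 2 30–<50%, 1 10–<30%, 0 <10% effect or injury.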

Setaria viridis [2] = assay: Test Example 1 upland field foliage treatment; details: Table 4, upland field foliage treatment, index 0-5
How it was run: as §1

Digitaria adscendens [3] = assay: Test Example 1 upland field foliage treatment; details: Table 4, upland field foliage treatment, index 0-5
How it was run: as §1

Chenopodium album [4] = assay: Test Example 1 upland field foliage treatment; details: Table 4, upland field foliage treatment, index 0-5
How it was run: as §1

Stellaria media [5] = assay: Test Example 2 upland soil treatment; details: Table 5, upland soil treatment, index 0-5
How it was run: (§2)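 Seeds are sown into upland soil and covered by roughly 1 cm of soil, then the compound, formulated as a wettable powder and diluted with water, is applied uniformly to the soil surface the following day at 1 kg active ingredient per hectare. Herbicidal effect or phytotoxicity is graded 0 to 5 after 21 days.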

Setaria viridis [6] = assay: Test Example 2 upland soil treatment; details: Table 5, upland soil treatment, index 0-5
How it was run: as §2

Digitaria adscendens [7] = assay: Test Example 2 upland soil treatment; details: Table 5, upland soil treatment, index 0-5
How it was run: as §2

Chenopodium album [8] = assay: Test Example 2 upland soil treatment; details: Table 5, upland soil treatment, index 0-5
How it was run: as §2

[9] = system: wheat (Triticum aestivum); assay: Test Example 2 upland soil treatment, crop phytotoxicity; details: Table 5, upland soil treatment, index 0-5
How it was run: as §2

soybean (Glycine max) [10] = assay: as above; details: Table 5, upland soil treatment, index 0-5
How it was run: as §2

Rice (Oryza sativa) = assay: Test Example 3 paddy field treatment, crop phytotoxicity; details: Table 6, paddy field treatment, transplanted rice, active ingredient 1 kg per hectare, 21st day after dropping, index 0-5
How it was run: (§3)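 Scoring used a 0–5 scale of herbicidal effect or phytotoxicity, from <10% to ≥90%, taken 21 days after treatment. Treatment was 1 kg a.i./ha as diluted wettable powder dripped onto 4 cm-deep flooded pots sown with the weeds, 10 days after transplanting two-leaf Koshihikari rice.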

[11] = system: wheat (Triticum aestivum); assay: Test Example 1 upland field foliage treatment, crop phytotoxicity; details: Table 4, upland field foliage treatment, index 0-5
How it was run: as §1

soybean (Glycine max) [12] = assay: as above; details: Table 4, upland field foliage treatment, index 0-5
How it was run: as §1

Echinochloa crusgalli = assay: Test Example 3 paddy field treatment; details: Table 6, paddy field treatment, active ingredient 1 kg per hectare, 21st day after dropping, index 0-5
How it was run: as §3

Monochoria vaginalis = assay: Test Example 3 paddy field treatment; details: Table 6, paddy field treatment, active ingredient 1 kg per hectare, 21st day after dropping, index 0-5
How it was run: as §3

Ammannia multiflora = assay: Test Example 3 paddy field treatment; details: Table 6, paddy field treatment, active ingredient 1 kg per hectare, 21st day after dropping, index 0-5
How it was run: as §3

Scirpus juncoides = assay: Test Example 3 paddy field treatment; details: Table 6, paddy field treatment, active ingredient 1 kg per hectare, 21st day after dropping, index 0-5
How it was run: as §3

SMILES	Herbicidal activity SM: Stellaria media (Stellaria media [1])	Herbicidal activity SV: Setaria viridis (Setaria viridis [2])	Herbicidal activity DA: Digitaria adscendens (Digitaria adscendens [3])	Herbicidal activity CA: Chenopodium album (Chenopodium album [4])	Herbicidal activity SM: Stellaria media (Stellaria media [5])	Herbicidal activity SV: Setaria viridis (Setaria viridis [6])	Herbicidal activity DA: Digitaria adscendens (Digitaria adscendens [7])	Herbicidal activity CA: Chenopodium album (Chenopodium album [8])	Herbicidal activity (phytotoxicity) TA: Wheat (Triticum aestivum) [9]	Herbicidal activity (phytotoxicity) GM: Soybean (Glycine max) (soybean (Glycine max) [10])	Herbicidal activity (phytotoxicity) OS (Rice (Oryza sativa))	Herbicidal activity (phytotoxicity) TA: Wheat (Triticum aestivum) [11]	Herbicidal activity (phytotoxicity) GM: Soybean (Glycine max) (soybean (Glycine max) [12])	Herbicidal activity EC (Echinochloa crusgalli)	Herbicidal activity MV (Monochoria vaginalis)	Herbicidal activity AM (Ammannia multiflora)	Herbicidal activity SJ (Scirpus juncoides)
CNC(=O)C(Cn1cc(C)c(-c2ccc(OC(F)F)cc2)n1)=NOC [Compound 65]	5 (herbicidal effect of not less than 90%, or phytotoxicity of 90% or more)	5 (herbicidal effect of not less than 90%, or phytotoxicity of 90% or more)	5 (herbicidal effect of not less than 90%, or phytotoxicity of 90% or more)	5 (herbicidal effect of not less than 90%, or phytotoxicity of 90% or more)	5 (herbicidal effect of not less than 90%, or phytotoxicity of 90% or more)	5 (herbicidal effect of not less than 90%, or phytotoxicity of 90% or more)	5 (herbicidal effect of not less than 90%, or phytotoxicity of 90% or more)	5 (herbicidal effect of not less than 90%, or phytotoxicity of 90% or more)	0 (herbicidal effect of not less than 0% and less than 10%, or phytotoxicity of 0% or more and less than 10%)	0 (herbicidal effect of not less than 0% and less than 10%, or phytotoxicity of 0% or more and less than 10%)	0 (herbicidal effect of not less than 0% and less than 10%, or phytotoxicity of 0% or more and less than 10%)	0 (herbicidal effect of not less than 0% and less than 10%, or phytotoxicity of 0% or more and less than 10%)	0 (herbicidal effect of not less than 0% and less than 10%, or phytotoxicity of 0% or more and less than 10%)	5 (herbicidal effect of not less than 90%, or phytotoxicity of 90% or more)	5 (herbicidal effect of not less than 90%, or phytotoxicity of 90% or more)	5 (herbicidal effect of not less than 90%, or phytotoxicity of 90% or more)	5 (herbicidal effect of not less than 90%, or phytotoxicity of 90% or more)
CNC(=O)C(Cn1cc(C)c(-c2ccc(OC(F)(F)CF)cc2)n1)=NOC [Compound 67]	4 (herbicidal effect of not less than 70% and less than 90%, or phytotoxicity of 70% or more and less than 90%)	4 (herbicidal effect of not less than 70% and less than 90%, or phytotoxicity of 70% or more and less than 90%)	5 (herbicidal effect of not less than 90%, or phytotoxicity of 90% or more)	5 (herbicidal effect of not less than 90%, or phytotoxicity of 90% or more)	5 (herbicidal effect of not less than 90%, or phytotoxicity of 90% or more)	4 (herbicidal effect of not less than 70% and less than 90%, or phytotoxicity of 70% or more and less than 90%)	4 (herbicidal effect of not less than 70% and less than 90%, or phytotoxicity of 70% or more and less than 90%)	5 (herbicidal effect of not less than 90%, or phytotoxicity of 90% or more)	0 (herbicidal effect of not less than 0% and less than 10%, or phytotoxicity of 0% or more and less than 10%)	0 (herbicidal effect of not less than 0% and less than 10%, or phytotoxicity of 0% or more and less than 10%)	0 (herbicidal effect of not less than 0% and less than 10%, or phytotoxicity of 0% or more and less than 10%)	0 (herbicidal effect of not less than 0% and less than 10%, or phytotoxicity of 0% or more and less than 10%)	0 (herbicidal effect of not less than 0% and less than 10%, or phytotoxicity of 0% or more and less than 10%)	5 (herbicidal effect of not less than 90%, or phytotoxicity of 90% or more)	5 (herbicidal effect of not less than 90%, or phytotoxicity of 90% or more)	4 (herbicidal effect of not less than 70% and less than 90%, or phytotoxicity of 70% or more and less than 90%)	5 (herbicidal effect of not less than 90%, or phytotoxicity of 90% or more)
CNC(=O)C(Cn1cc(C)c(-c2ccc(F)c(OC)c2)n1)=NOC [Compound 77]	3 (herbicidal effect of not less than 50% and less than 70%, or phytotoxicity of 50% or more and less than 70%)	3 (herbicidal effect of not less than 50% and less than 70%, or phytotoxicity of 50% or more and less than 70%)	5 (herbicidal effect of not less than 90%, or phytotoxicity of 90% or more)	5 (herbicidal effect of not less than 90%, or phytotoxicity of 90% or more)	5 (herbicidal effect of not less than 90%, or phytotoxicity of 90% or more)	4 (herbicidal effect of not less than 70% and less than 90%, or phytotoxicity of 70% or more and less than 90%)	5 (herbicidal effect of not less than 90%, or phytotoxicity of 90% or more)	5 (herbicidal effect of not less than 90%, or phytotoxicity of 90% or more)	0 (herbicidal effect of not less than 0% and less than 10%, or phytotoxicity of 0% or more and less than 10%)	0 (herbicidal effect of not less than 0% and less than 10%, or phytotoxicity of 0% or more and less than 10%)	0 (herbicidal effect of not less than 0% and less than 10%, or phytotoxicity of 0% or more and less than 10%)	0 (herbicidal effect of not less than 0% and less than 10%, or phytotoxicity of 0% or more and less than 10%)	0 (herbicidal effect of not less than 0% and less than 10%, or phytotoxicity of 0% or more and less than 10%)	5 (herbicidal effect of not less than 90%, or phytotoxicity of 90% or more)	5 (herbicidal effect of not less than 90%, or phytotoxicity of 90% or more)	5 (herbicidal effect of not less than 90%, or phytotoxicity of 90% or more)	5 (herbicidal effect of not less than 90%, or phytotoxicity of 90% or more)
CNC(=O)C(Cn1cc(C)c(-c2ccc(Cl)cc2F)n1)=NOC [Compound 81]	5 (herbicidal effect of not less than 90%, or phytotoxicity of 90% or more)	5 (herbicidal effect of not less than 90%, or phytotoxicity of 90% or more)	5 (herbicidal effect of not less than 90%, or phytotoxicity of 90% or more)	5 (herbicidal effect of not less than 90%, or phytotoxicity of 90% or more)	5 (herbicidal effect of not less than 90%, or phytotoxicity of 90% or more)	5 (herbicidal effect of not less than 90%, or phytotoxicity of 90% or more)	5 (herbicidal effect of not less than 90%, or phytotoxicity of 90% or more)	5 (herbicidal effect of not less than 90%, or phytotoxicity of 90% or more)	0 (herbicidal effect of not less than 0% and less than 10%, or phytotoxicity of 0% or more and less than 10%)	1 (herbicidal effect of not less than 10% and less than 30%, or phytotoxicity of 10% or more and less than 30%)	0 (herbicidal effect of not less than 0% and less than 10%, or phytotoxicity of 0% or more and less than 10%)	0 (herbicidal effect of not less than 0% and less than 10%, or phytotoxicity of 0% or more and less than 10%)	0 (herbicidal effect of not less than 0% and less than 10%, or phytotoxicity of 0% or more and less than 10%)	5 (herbicidal effect of not less than 90%, or phytotoxicity of 90% or more)	5 (herbicidal effect of not less than 90%, or phytotoxicity of 90% or more)	5 (herbicidal effect of not less than 90%, or phytotoxicity of 90% or more)	5 (herbicidal effect of not less than 90%, or phytotoxicity of 90% or more)
